Test results reported in article PMC11966747, “Next Generation Risk Assessment of Acute Neurotoxicity from Organophosphate Exposures Using the In Vitro–In Silico Derived Dietary Comparator Ratio” (Environmental Science & Technology, 2025).
Like-named read-outs stand apart in the source and are kept apart here.

Columns and labels:
erythrocyte AChE [1] = molecular target: T1, erythrocyte AChE (Homo sapiens, UniProt P22303); settings: human, ref Table S2, cited from earlier work
[2] = QSAR-based prediction; ref Punt et al. 2022; Moerenhout et al. 2024; cited from earlier work
erythrocyte AChE [3] = molecular target: T1, erythrocyte AChE; assay: Exposure Activity Ratio (EAR) and Dietary Comparator Ratio (DCR) calculation; parameters: from tissue; host or cells: human whole peripheral blood (erythrocytes), K2EDTA anticoagulant; settings: human

T1 sequence (P22303 32-617 isoform P22303-2 limits assumed): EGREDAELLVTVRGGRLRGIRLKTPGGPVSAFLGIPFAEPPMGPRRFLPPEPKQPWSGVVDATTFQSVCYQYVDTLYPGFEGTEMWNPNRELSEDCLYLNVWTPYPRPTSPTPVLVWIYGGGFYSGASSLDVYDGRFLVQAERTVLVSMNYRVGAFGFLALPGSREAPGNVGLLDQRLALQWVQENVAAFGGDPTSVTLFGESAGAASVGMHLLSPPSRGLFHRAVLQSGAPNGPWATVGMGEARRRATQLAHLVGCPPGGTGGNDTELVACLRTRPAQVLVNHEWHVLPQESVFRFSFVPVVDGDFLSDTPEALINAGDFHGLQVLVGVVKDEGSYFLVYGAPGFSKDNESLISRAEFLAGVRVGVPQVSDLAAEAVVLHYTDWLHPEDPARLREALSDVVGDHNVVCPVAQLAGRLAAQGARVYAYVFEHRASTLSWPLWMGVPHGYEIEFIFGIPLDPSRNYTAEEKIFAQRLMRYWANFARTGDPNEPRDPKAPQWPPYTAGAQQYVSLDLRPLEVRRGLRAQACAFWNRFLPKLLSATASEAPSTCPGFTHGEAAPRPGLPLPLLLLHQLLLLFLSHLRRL

In the case of `COP(=S)(OC)Oc1ccc([N+](=O)[O-])c(C)c1` [fenitrothion], the “reported or expected adverse health outcome” value (erythrocyte AChE [1]; single oral 143 mg/kg BW, listed as Fenitrothion, 143 mg/kg) is given as “Yes”, the “reported or expected adverse health outcome” value (erythrocyte AChE [1]; single oral 214 mg/kg BW, 214 mg/kg) is given as “positive” and the “reported or expected adverse health outcome” value (erythrocyte AChE [1]; single oral 214 mg/kg BW, listed as Fenitrothion, 214 mg/kg) is given as “Yes”. The “reported or expected adverse health outcome” value (erythrocyte AChE [1]; single oral 357 mg/kg BW, 357 mg/kg) was “positive”, the “reported or expected adverse health outcome” value (erythrocyte AChE [1]; single oral 357 mg/kg BW, listed as Fenitrothion, 357 mg/kg) was “Yes” and the “reported or expected adverse health outcome” value (erythrocyte AChE [1]; single oral 429 mg/kg BW, 429 mg/kg) was “positive”. For the same compound, the “reported or expected adverse health outcome” value (erythrocyte AChE [1]; single oral 429 mg/kg BW, listed as Fenitrothion, 429 mg/kg) was “Yes”, the “reported or expected adverse health outcome” value (erythrocyte AChE [1]; single oral 500 mg/kg BW, 500 mg/kg) was “positive” and the “reported or expected adverse health outcome” value (erythrocyte AChE [1]; single oral 500 mg/kg BW, listed as Fenitrothion, 500 mg/kg) was “Yes”. For the same compound, the “reported or expected adverse health outcome” value (erythrocyte AChE [1]; single oral 536 mg/kg BW, 536 mg/kg) was “positive”, the “reported or expected adverse health outcome” value (erythrocyte AChE [1]; single oral 536 mg/kg BW, listed as Fenitrothion, 536 mg/kg) was “Yes” and the “reported or expected adverse health outcome” value (erythrocyte AChE [1]; single oral 571 mg/kg BW, 571 mg/kg) was “positive”. The “reported or expected adverse health outcome” value (erythrocyte AChE [1]; single oral 571 mg/kg BW, listed as Fenitrothion, 571 mg/kg) was “Yes”, the “reported or expected adverse health outcome” value (erythrocyte AChE [1]; single oral 1714 mg/kg BW, 1714 mg/kg) was “positive” and the “reported or expected adverse health outcome” value (erythrocyte AChE [1]; single oral 1714 mg/kg BW, listed as Fenitrothion, 1714 mg/kg) was “Yes”. The “reported or expected adverse health outcome” value (erythrocyte AChE [1]; single oral 1786 mg/kg BW, 1786 mg/kg) was “positive”, the “reported or expected adverse health outcome” value (erythrocyte AChE [1]; single oral 1786 mg/kg BW, listed as Fenitrothion, 1786 mg/kg) was “Yes” and the “Oral absorption rate constant” value [2] was 0.58 h⁻¹. The “calculated DCR value” (erythrocyte AChE [3]; single oral 0.042 mg/kg BW) was 0.17, the “calculated EARtest value” (erythrocyte AChE [3]; single oral 0.042 mg/kg BW) was 6.8 × 10^–3 and the “calculated DCR value” (erythrocyte AChE [3]; single oral 0.06 mg/kg BW) was 0.25. The “calculated EARtest value” (erythrocyte AChE [3]; single oral 0.06 mg/kg BW) was 9.7 × 10^–3, the “calculated DCR value” (erythrocyte AChE [3]; single oral 0.083 mg/kg BW) was 0.34 and the “calculated EARtest value” (erythrocyte AChE [3]; single oral 0.083 mg/kg BW) was 0.013. For the same compound, the “calculated DCR value” (erythrocyte AChE [3]; single oral 0.09 mg/kg BW) was 0.37, the “calculated EARtest value” (erythrocyte AChE [3]; single oral 0.09 mg/kg BW) was 0.015 and the “calculated DCR value” (erythrocyte AChE [3]; single oral 0.17 mg/kg BW) was 0.70. For the same compound, the “calculated EARtest value” (erythrocyte AChE [3]; single oral 0.17 mg/kg BW) was 0.028, the “calculated DCR value” (erythrocyte AChE [3]; single oral 0.18 mg/kg BW) was 0.74 and the “calculated EARtest value” (erythrocyte AChE [3]; single oral 0.18 mg/kg BW) was 0.029. The “calculated DCR value” (erythrocyte AChE [3]; single oral 0.25 mg/kg BW) was 1.0, the “calculated EARtest value” (erythrocyte AChE [3]; single oral 0.25 mg/kg BW) was 0.041 and the “calculated DCR value” (erythrocyte AChE [3]; single oral 0.33 mg/kg BW) was 1.4. The “calculated EARtest value” (erythrocyte AChE [3]; single oral 0.33 mg/kg BW) was 0.054, the “calculated DCR value” (erythrocyte AChE [3]; single oral 0.36 mg/kg BW) was 1.5 and the “calculated EARtest value” (erythrocyte AChE [3]; single oral 0.36 mg/kg BW) was 0.059. The “calculated DCR value” (erythrocyte AChE [3]; single oral 36 mg/kg BW) was 174, the “calculated EARtest value” (erythrocyte AChE [3]; single oral 36 mg/kg BW) was 6.89 and the “calculated DCR value” (erythrocyte AChE [3]; single oral 71 mg/kg BW) was 346. For the same compound, the “calculated EARtest value” (erythrocyte AChE [3]; single oral 71 mg/kg BW) was 13.66, the “calculated DCR value” (erythrocyte AChE [3]; single oral 143 mg/kg BW) was 610 and the “calculated EARtest value” (erythrocyte AChE [3]; single oral 143 mg/kg BW) was 24.10. The “calculated DCR value” (erythrocyte AChE [3]; single oral 214 mg/kg BW) was 811, the “calculated EARtest value” (erythrocyte AChE [3]; single oral 214 mg/kg BW) was 32.03 and the “calculated DCR value” (erythrocyte AChE [3]; single oral 357 mg/kg BW) was 1189. For the same compound, the “calculated EARtest value” (erythrocyte AChE [3]; single oral 357 mg/kg BW) was 46.93, the “calculated DCR value” (erythrocyte AChE [3]; single oral 429 mg/kg BW) was 1364 and the “calculated EARtest value” (erythrocyte AChE [3]; single oral 429 mg/kg BW) was 53.86. For the same compound, the “calculated DCR value” (erythrocyte AChE [3]; single oral 500 mg/kg BW) was 1526, the “calculated EARtest value” (erythrocyte AChE [3]; single oral 500 mg/kg BW) was 60.24 and the “calculated DCR value” (erythrocyte AChE [3]; single oral 536 mg/kg BW) was 1604. For the same compound, the “calculated EARtest value” (erythrocyte AChE [3]; single oral 536 mg/kg BW) was 63.31, the “calculated DCR value” (erythrocyte AChE [3]; single oral 571 mg/kg BW) was 1677 and the “calculated EARtest value” (erythrocyte AChE [3]; single oral 571 mg/kg BW) was 66.18. For the same compound, the “calculated DCR value” (erythrocyte AChE [3]; single oral 1714 mg/kg BW) was 3037, the “calculated EARtest value” (erythrocyte AChE [3]; single oral 1714 mg/kg BW) was 119.90 and the “calculated DCR value” (erythrocyte AChE [3]; single oral 1786 mg/kg BW) was 3078. For the same compound, the “calculated EARtest value” (erythrocyte AChE [3]; single oral 1786 mg/kg BW) was 121.49.
